Measurements: BindingDB's records for doi:10.7270/Q24T6GSH (The Scripps Research Institute Molecular Screening Center, 2007)
Each block holds one molecule with its values, some of them ahead of it.

Molecular target: T1, Isoform 2 of Nuclear receptor ROR-alpha (Alpha-2) (Homo sapiens, UniProt P35398)
T1 sequence (P35398 whole entry): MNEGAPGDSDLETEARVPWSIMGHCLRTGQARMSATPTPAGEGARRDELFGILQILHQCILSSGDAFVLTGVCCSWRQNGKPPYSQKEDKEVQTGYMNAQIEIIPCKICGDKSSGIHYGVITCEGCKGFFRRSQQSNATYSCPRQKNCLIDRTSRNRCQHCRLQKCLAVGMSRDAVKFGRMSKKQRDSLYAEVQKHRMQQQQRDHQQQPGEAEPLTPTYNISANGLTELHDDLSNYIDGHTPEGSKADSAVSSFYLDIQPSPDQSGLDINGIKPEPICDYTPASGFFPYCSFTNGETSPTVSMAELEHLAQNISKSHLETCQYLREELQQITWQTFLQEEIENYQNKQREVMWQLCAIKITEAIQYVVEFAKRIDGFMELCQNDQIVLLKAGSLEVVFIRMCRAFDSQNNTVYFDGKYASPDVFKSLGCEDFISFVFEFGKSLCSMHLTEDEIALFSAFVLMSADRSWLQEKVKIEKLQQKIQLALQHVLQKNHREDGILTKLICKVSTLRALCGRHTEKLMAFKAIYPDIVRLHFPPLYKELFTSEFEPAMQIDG
Experiment: RORA Gal4 reporter activation in CHO-K1 cells, dose response, counter-screen for SF-1 activator project, cell-based, Gal4-RORA LBD, luciferase luminescence (AID 675)

[1] = inactive by the depositor's call

SMILES: COc1ccc(C(=O)CC=Nc2cccc(C)n2)cc1OC
EC50: 749 nM

SMILES: CC(=O)c1c(C)[nH]c(C(=O)Nc2ccc3c(c2)OCCO3)c1C
EC50: 400 nM

SMILES: O=C(CSc1ccccn1)c1ccc2c(c1)OCO2 [1-(1,3-benzodioxol-5-yl)-2-(2-pyridinylthio)ethanone]
EC50: 1230 nM

SMILES: CCCn1c(C)cc(C(=O)COc2ncnc3sccc23)c1C [1-(2,5-dimethyl-1-propyl-3-pyrrolyl)-2-(4-thieno[2,3-d]pyrimidinyloxy)ethanone]
EC50: 1990 nM

SMILES: COc1ccc2nc(Nc3nc(C)c(C(C)=O)s3)sc2c1 [1-[2-[(6-methoxy-1,3-benzothiazol-2-yl)amino]-4-methyl-1,3-thiazol-5-yl]ethanone]
EC50: > 1220 nM

SMILES: Fc1cnc(N2CCOCC2)nc1N1CCc2ccccc21 [1-[5-fluoro-2-(4-morpholinyl)-4-pyrimidinyl]indoline]
EC50 [1]: 10200 nM

SMILES: CCOC(=O)C1CCN(S(=O)(=O)c2ccc(-c3nc4ccccc4s3)s2)CC1 [1-[[5-(1,3-benzothiazol-2-yl)-2-thienyl]sulfonyl]isonipecotic acid ethyl ester]
EC50: 1720 nM

SMILES: COc1ccc2c(c1)CCc1c(C(=O)N3CCCCCC3)noc1-2 [1-azepanyl-(7-methoxy-4,5-dihydrobenzo[g][1,2]benzoxazol-3-yl)methanone]
EC50: 1570 nM

SMILES: COc1ccc(CNC(=O)NC2CCCCC2)cc1 [1-cyclohexyl-3-[(4-methoxyphenyl)methyl]urea]
EC50: > 99000 nM

SMILES: COc1ccc(-c2cc(C(=O)N3CCCCC3)no2)cc1OC [1-{[5-(3,4-dimethoxyphenyl)isoxazol-3-yl]carbonyl}piperidine]
EC50: 3920 nM

SMILES: Cc1cc(C(=O)OCC(=O)N2CCc3ccccc32)c(C)o1 [2,5-dimethyl-3-furancarboxylic acid [2-(2,3-dihydroindol-1-yl)-2-oxoethyl] ester]
EC50: 897 nM

SMILES: CC(C)(C)n1ncc2c(=O)n(CC(=O)NCc3ccccc3Cl)cnc21 [2-(1-tert-butyl-4-keto-pyrazolo[3,4-d]pyrimidin-5-yl)-N-(2-chlorobenzyl)acetamide]
EC50: > 136 nM

SMILES: COc1cc(N2CCCC2)c(OC)cc1C=c1sc2nc3ccccc3n2c1=O [2-(2,5-dimethoxy-4-pyrrolidino-benzylidene)thiazolo[3,2-a]benzimidazol-1-one]
EC50: 11000 nM

SMILES: CCn1c(SCC(=O)c2cccs2)nnc1-c1ccco1 [2-(4-Ethyl-5-furan-2-yl-4H-[1,2,4]triazol-3-ylsulfanyl)-1-thiophen-2-yl-ethanone]
EC50: 5820 nM

SMILES: Cc1cccc(-n2ccnc2SCC(=O)Nc2nccs2)c1 [2-[1-(3-methylphenyl)imidazol-2-yl]sulfanyl-N-(1,3-thiazol-2-yl)acetamide]
EC50: > 11000 nM

SMILES: C=CCn1c(C)cc(C(=O)CSc2nc(O)c3ccccc3n2)c1C [2-[2-(2,5-dimethyl-1-prop-2-enyl-pyrrol-3-yl)-2-oxidanylidene-ethyl]sulfanyl-1H-quinazolin-4-one]
EC50: 609 nM

SMILES: OCCOCCNc1ncnc2c1cnn2-c1ccc(Cl)cc1 [2-[2-[[1-(4-chlorophenyl)-4-pyrazolo[3,4-d]pyrimidinyl]amino]ethoxy]ethanol]
EC50: 595 nM

SMILES: CCc1nnc(NC(=O)CSc2nc3c(cc2C#N)CCC3)s1 [2-[(3-cyano-1-pyrindan-2-yl)thio]-N-(5-ethyl-1,3,4-thiadiazol-2-yl)acetamide]
EC50: > 407 nM

SMILES: Nn1c(SCC(=O)Nc2ccc(F)cc2F)nnc1-c1cccnc1 [2-[(4-amino-5-pyridin-3-yl-1,2,4-triazol-3-yl)sulfanyl]-N-(2,4-difluorophenyl)acetamide]
EC50: 6790 nM

SMILES: CCc1nnc(NC(=O)CSc2nc(C)c3c(c2C#N)CCCC3)s1 [2-[(4-cyano-1-methyl-5,6,7,8-tetrahydroisoquinolin-3-yl)sulfanyl]-N-(5-ethyl-1,3,4-thiadiazol-2-yl)acetamide]
EC50: 1230 nM

SMILES: O=C1CCCC(=O)C1=CNc1ccc(O)cc1 [2-[(4-hydroxyanilino)methylidene]cyclohexane-1,3-dione]
EC50: > 99000 nM

SMILES: Cc1ccc(C(=O)Nc2nnc(-c3cccs3)s2)cc1C [3,4-dimethyl-N-(5-thiophen-2-yl-1,3,4-thiadiazol-2-yl)benzamide]
EC50: 786 nM

SMILES: Cc1ccc(-n2c(C)cc(C(=O)COC(=O)c3c(C)noc3C)c2C)cc1 [3,5-dimethyl-4-isoxazolecarboxylic acid [2-[2,5-dimethyl-1-(4-methylphenyl)-3-pyrrolyl]-2-oxoethyl] ester]
EC50: 1630 nM

SMILES: CCCOC(=O)c1ccc(NC(=O)C2CCCO2)cc1 (stereo not given) [4-(tetrahydrofuran-2-carbonylamino)benzoic acid propyl ester]
EC50: > 3670 nM

SMILES: CCOC(=O)N1CCN(S(=O)(=O)c2ccc(C(=O)Nc3sc4c(c3C#N)CCC4)cc2)CC1 [4-[4-[(3-cyano-5,6-dihydro-4H-cyclopenta[b]thiophen-2-yl)carbamoyl]phenyl]sulfonylpiperazine-1-carboxylic acid ethyl ester]
EC50: 636 nM

More lines, now with the values ahead:

EC50: 766 nM
SMILES: COc1ccc2c(c1OC)C(=O)N1c3ccccc3SC21 (stereo not given) [1,2-dimethoxy-4bH-isoindolo[1,2-b][1,3]benzothiazol-11-one]

EC50: 615 nM
SMILES: O=C(COc1ncnc2ccccc12)c1ccc2c(c1)OCCO2 [1-(2,3-dihydro-1,4-benzodioxin-6-yl)-2-(4-quinazolinyloxy)ethanone]

EC50: 1650 nM
SMILES: N#CCc1ccc(NC(=O)Nc2cccc(Cl)c2)cc1 [1-(3-chlorophenyl)-3-[4-(cyanomethyl)phenyl]urea]

EC50: > 407 nM
SMILES: CN(C)c1ccc(NC(=O)Nc2cccc(Cl)c2)cc1 [1-(3-chlorophenyl)-3-[4-(dimethylamino)phenyl]urea]

EC50: 2290 nM
SMILES: Clc1ccc(-n2ncc3c(NCc4ccccn4)ncnc32)cc1 [1-(4-chlorophenyl)-N-(2-pyridinylmethyl)-4-pyrazolo[3,4-d]pyrimidinamine]

EC50: > 11000 nM
SMILES: O=C(Cc1ccccc1)n1nc(-c2ccccc2)nc1NCc1ccco1 [1-[5-(2-furanylmethylamino)-3-phenyl-1,2,4-triazol-1-yl]-2-phenylethanone]

EC50: 2220 nM
SMILES: CN(C)c1oc(-c2ccc(OCc3ccccc3)cc2)nc1C#N [2-(4-benzoxyphenyl)-5-(dimethylamino)oxazole-4-carbonitrile]

EC50: 886 nM
SMILES: CCOc1ccc(N2C(=O)c3ccccc3C2O)cc1 (stereo not given) [2-(4-ethoxyphenyl)-3-hydroxy-3H-isoindol-1-one]

EC50: > 11000 nM
SMILES: O=C(CSc1nc2ccccc2o1)Nc1nc2ccccc2s1 [2-(Benzooxazol-2-ylsulfanyl)-N-benzothiazol-2-yl-acetamide]

EC50: 933 nM
SMILES: CCOC(=O)CSc1nc2ccccc2c(=O)n1NC(=O)c1ccccc1 [2-[(3-benzamido-4-keto-quinazolin-2-yl)thio]acetic acid ethyl ester]

EC50: 1710 nM
SMILES: CCOC(=O)CSc1nc(-c2ccncc2)ccc1C#N [2-[(3-cyano-6-pyridin-4-yl-2-pyridinyl)thio]acetic acid ethyl ester]

EC50: 3920 nM
SMILES: Cc1csc2nc(CSc3nc4ccccc4o3)cn12 [2-[(3-methyl-6-imidazo[2,1-b]thiazolyl)methylthio]-1,3-benzoxazole]

EC50: 5650 nM
SMILES: CCOC(=O)CSc1nc(-c2ccc3c(c2)OCO3)ccc1C#N [2-[[6-(1,3-benzodioxol-5-yl)-3-cyano-2-pyridinyl]thio]acetic acid ethyl ester]

EC50: 3190 nM
SMILES: O=C(CNc1ccccc1)Nc1ccc(F)cc1 [2-anilino-N-(4-fluorophenyl)acetamide]

EC50: 112 nM
SMILES: Cc1nc2sc(-c3ccccc3)cc2c(=O)n1-n1cccc1 [2-methyl-6-phenyl-3-(1-pyrrolyl)-4-thieno[2,3-d]pyrimidinone]

EC50: > 33000 nM
SMILES: COc1cc(C2c3c(c(O)n(-c4ccccc4)c3O)ON2c2ccccc2)ccc1O (stereo not given) [3-(3-methoxy-4-oxidanyl-phenyl)-2,5-diphenyl-3a,6a-dihydro-3H-pyrrolo[3,4-d][1,2]oxazole-4,6-dione]

EC50: > 407 nM
SMILES: COc1ccc2nc3sc(C(=O)NCc4cccs4)c(N)c3cc2c1 [3-Amino-6-methoxy-thieno[2,3-b]quinoline-2-carboxylic acid (thiophen-2-ylmethyl)-amide]

EC50: 3690 nM
SMILES: O=c1c2ccccc2nnn1CSc1nnc(COc2ccc(Cl)cc2)n1Cc1ccco1 [3-[[5-[(4-chloranylphenoxy)methyl]-4-(furan-2-ylmethyl)-1,2,4-triazol-3-yl]sulfanylmethyl]-1,2,3-benzotriazin-4-one]

EC50: 1730 nM
SMILES: COc1cccc(C(=O)Nc2cccc(-c3nnc(-c4ccccc4)o3)c2)c1 [3-methoxy-N-[3-(5-phenyl-1,3,4-oxadiazol-2-yl)phenyl]benzamide]

EC50: 693 nM
SMILES: COc1ccc(-c2nc3c(Br)c(N)c(Br)cc3o2)cc1 [4,6-bis(bromanyl)-2-(4-methoxyphenyl)-1,3-benzoxazol-5-amine]

EC50 [1]: 11300 nM
SMILES: c1ccc2nc3c(nc2c1)c1ccccc1n3CCN1CCOCC1 [4-(2-indolo[3,2-b]quinoxalin-6-ylethyl)morpholine]

EC50: 1500 nM
SMILES: COc1ccc(CNc2ccc(C(=O)O)cc2)cc1 [4-(p-anisylamino)benzoic acid]

EC50: 3120 nM
SMILES: COc1cccc2c(O)c(C(=O)NCc3cccs3)cnc12 [4-Hydroxy-8-methoxy-quinoline-3-carboxylic acid (thiophen-2-ylmethyl)-amide]

EC50: 1890 nM
SMILES: Cc1cccnc1Nc1nc(-c2ccc(O)cc2O)cs1 [4-[2-(3-Methyl-pyridin-2-ylamino)-thiazol-4-yl]-benzene-1,3-diol]

EC50: > 11000 nM
SMILES: CC(C)(CC(=O)O)Cc1nc(-c2ccc(Cl)cc2)no1 [4-[3-(4-chlorophenyl)-1,2,4-oxadiazol-5-yl]-3,3-dimethyl-butanoic acid]
